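Results reflect a 48-hour exposure of cells in 96-well plates to compound at five concentrations. At the TGI there is no net growth.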
Columns and labels:
Assay in all cases: NCI tumour cell line growth inhibition, 48 h
KM20L2 colon = tested on: KM20L2 colon
SN12C renal = tested on: SN12C renal
NCI-H522 lung = tested on: NCI-H522 lung
SK-MEL-5 melanoma = tested on: SK-MEL-5 melanoma
HOP-62 NSCLC = tested on: HOP-62 NSCLC
MOLT-4 leukemia = tested on: MOLT-4 leukemia
SK-MEL-28 melanoma = tested on: SK-MEL-28 melanoma
KM12 colon = tested on: KM12 colon
A498 renal = tested on: A498 renal
SK-OV-3 ovarian = tested on: SK-OV-3 ovarian
M14 melanoma = tested on: M14 melanoma
DMS 273 small cell lung = tested on: DMS 273 small cell lung
ACHN renal = tested on: ACHN renal
HOP-18 NSCLC = tested on: HOP-18 NSCLC
OVCAR-8 ovarian = tested on: OVCAR-8 ovarian
786-0 renal = tested on: 786-0 renal
HOP-92 NSCLC = tested on: HOP-92 NSCLC
UACC-257 melanoma = tested on: UACC-257 melanoma
SR leukemia = tested on: SR leukemia
MALME-3M melanoma = tested on: MALME-3M melanoma
HT29 colon = tested on: HT29 colon
CAKI-1 renal = tested on: CAKI-1 renal
XF 498 CNS = tested on: XF 498 CNS
SK-MEL-2 melanoma = tested on: SK-MEL-2 melanoma
IGROV1 ovarian = tested on: IGROV1 ovarian
DLD-1 colon = tested on: DLD-1 colon
SNB-19 CNS = tested on: SNB-19 CNS
NCI-H460 lung = tested on: NCI-H460 lung
HCC-2998 colon = tested on: HCC-2998 colon
DMS 114 small cell lung = tested on: DMS 114 small cell lung
U251 CNS = tested on: U251 CNS
RXF 393 renal = tested on: RXF 393 renal
EKVX NSCLC = tested on: EKVX NSCLC
UO-31 renal = tested on: UO-31 renal
HCT-15 colon = tested on: HCT-15 colon
K-562 leukemia = tested on: K-562 leukemia
TK-10 renal = tested on: TK-10 renal
CCRF-CEM leukemia = tested on: CCRF-CEM leukemia
SF-268 CNS = tested on: SF-268 CNS
SW-620 colon = tested on: SW-620 colon
OVCAR-5 ovarian = tested on: OVCAR-5 ovarian
HL-60(TB) leukemia = tested on: HL-60(TB) leukemia
NCI-H226 lung = tested on: NCI-H226 lung
SNB-75 CNS = tested on: SNB-75 CNS
HCT-116 colon = tested on: HCT-116 colon
UACC-62 melanoma = tested on: UACC-62 melanoma
A549 NSCLC = tested on: A549 NSCLC
SF-295 CNS = tested on: SF-295 CNS
M19-MEL melanoma = tested on: M19-MEL melanoma
LOX IMVI melanoma = tested on: LOX IMVI melanoma
NCI-H23 lung = tested on: NCI-H23 lung
LXFL 529 NSCLC = tested on: LXFL 529 NSCLC
RPMI-8226 leukemia = tested on: RPMI-8226 leukemia
OVCAR-4 ovarian = tested on: OVCAR-4 ovarian
SF-539 CNS = tested on: SF-539 CNS
SNB-78 CNS = tested on: SNB-78 CNS
RXF-631 renal = tested on: RXF-631 renal

Measured: TGI

C1CCN(c2nc(=[N+]3CCCCC3)ss2)CC1
> 100 µM: KM20L2 colon | SN12C renal | NCI-H522 lung | SK-MEL-5 melanoma | HOP-62 NSCLC | MOLT-4 leukemia | SK-MEL-28 melanoma | KM12 colon | A498 renal | SK-OV-3 ovarian | M14 melanoma | DMS 273 small cell lung | ACHN renal | HOP-18 NSCLC | OVCAR-8 ovarian | 786-0 renal | HOP-92 NSCLC | UACC-257 melanoma | SR leukemia | MALME-3M melanoma | HT29 colon | CAKI-1 renal | XF 498 CNS | SK-MEL-2 melanoma | IGROV1 ovarian | DLD-1 colon | SNB-19 CNS | NCI-H460 lung | HCC-2998 colon | DMS 114 small cell lung | U251 CNS | RXF 393 renal | EKVX NSCLC | UO-31 renal | HCT-15 colon | K-562 leukemia | TK-10 renal | CCRF-CEM leukemia | SF-268 CNS | SW-620 colon | OVCAR-5 ovarian | HL-60(TB) leukemia | NCI-H226 lung | SNB-75 CNS | HCT-116 colon | UACC-62 melanoma | A549 NSCLC | SF-295 CNS | M19-MEL melanoma | LOX IMVI melanoma | NCI-H23 lung | LXFL 529 NSCLC | RPMI-8226 leukemia | OVCAR-4 ovarian | SF-539 CNS | SNB-78 CNS | RXF-631 renal
